The target of the experiment is PRMT5/MEP50 (Homo sapiens (Human), UniProt O14744). Description: PRMT5 Biochemical Assay (PRMT5/MEP50 enzyme assay on peptide substrate, 3H-SAM Flashplate). The note with it: PRMT5/MEP50 biochemical assay; read-out: Biochemical IC50.
Sequence of PRMT5/MEP50 (O14744 other isoform, or with tags, fused parts or gaps): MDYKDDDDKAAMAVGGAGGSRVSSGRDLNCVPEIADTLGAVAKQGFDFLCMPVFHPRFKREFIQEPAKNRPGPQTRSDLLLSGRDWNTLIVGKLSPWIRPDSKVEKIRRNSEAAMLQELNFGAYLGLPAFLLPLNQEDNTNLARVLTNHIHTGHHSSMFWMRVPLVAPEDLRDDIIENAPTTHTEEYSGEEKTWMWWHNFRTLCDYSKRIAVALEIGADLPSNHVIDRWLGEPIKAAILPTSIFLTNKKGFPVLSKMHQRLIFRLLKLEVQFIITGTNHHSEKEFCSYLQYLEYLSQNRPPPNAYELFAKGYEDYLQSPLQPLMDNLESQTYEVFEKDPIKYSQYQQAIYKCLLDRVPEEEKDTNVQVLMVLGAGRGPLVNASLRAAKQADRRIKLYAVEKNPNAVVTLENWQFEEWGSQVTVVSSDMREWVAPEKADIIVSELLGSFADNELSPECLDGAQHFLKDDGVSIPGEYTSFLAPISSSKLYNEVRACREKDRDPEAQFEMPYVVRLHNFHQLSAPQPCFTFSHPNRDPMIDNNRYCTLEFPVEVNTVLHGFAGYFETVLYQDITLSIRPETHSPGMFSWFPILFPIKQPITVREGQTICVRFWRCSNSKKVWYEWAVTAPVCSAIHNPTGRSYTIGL
Sequence of PRMT5/MEP50 (Q9BQA1 other isoform, or with tags, fused parts or gaps partner): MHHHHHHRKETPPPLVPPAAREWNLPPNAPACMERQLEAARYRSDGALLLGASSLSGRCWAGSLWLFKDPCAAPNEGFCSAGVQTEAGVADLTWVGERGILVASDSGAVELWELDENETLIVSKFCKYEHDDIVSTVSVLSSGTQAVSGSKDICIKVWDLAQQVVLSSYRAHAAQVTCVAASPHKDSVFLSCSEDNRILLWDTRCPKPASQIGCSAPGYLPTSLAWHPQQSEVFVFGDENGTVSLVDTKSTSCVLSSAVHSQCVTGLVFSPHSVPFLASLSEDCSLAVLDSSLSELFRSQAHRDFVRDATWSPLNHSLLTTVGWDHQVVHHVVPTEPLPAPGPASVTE
The IC50 is the concentration needed to halve the response being measured. For `CC(=O)N1CCC(Nc2cc(C(=O)NC[C@H](O)CN3CCc4ccccc4C3)ncn2)C1` (stereo partly drawn) [Compound 210], the IC50 was under 100 nM.
With `O=C(NC[C@H](O)CN1CCc2ccccc2C1)c1cncc(NC2CCOC2)c1` (stereo partly drawn) [Compound 211], the IC50 was under 100 nM.
With `C[C@@H]1COCCC1Nc1cccc(C(=O)NC[C@H](O)CN2CCc3ccccc3C2)c1` (stereo partly drawn) [Compound 212], the IC50 was under 100 nM.
Under `C[C@H]1COCCC1Nc1cccc(C(=O)NC[C@H](O)CN2CCc3ccccc3C2)c1` (stereo partly drawn) [Compound 213] stands under 100 nM; under `CN(C)CCNc1cc(C(=O)NC[C@H](O)CN2CCc3ccccc3C2)ccn1` [Compound 214], under 100 nM; under `CC(=O)N1CCC(Nc2cccc(C(=O)NC[C@H](O)CN3CCc4ccccc4C3)c2)CC1` [Compound 215], under 100 nM.
Under `CS(=O)(=O)N1CCC(Nc2cccc(C(=O)NC[C@H](O)CN3CCc4ccccc4C3)c2)CC1` [Compound 216] stands under 100 nM.
For the compound `O=C(NC[C@H](O)CN1CCc2ccccc2C1)c1cccc(NC2CCN(CC(F)(F)F)CC2)c1` [Compound 217], the IC50 was under 100 nM.
For the compound `O=C(NC[C@@H](O)CN1CCc2ccccc2C1)c1ccc2ncccc2c1` [Compound 218], the IC50 was under 100 nM.
As to `Cc1ccc2cc(C(=O)NC[C@@H](O)CN3CCc4ccccc4C3)ccc2n1` [Compound 219, (R)—N-(3-(3,4-dihydroisoquinolin-2(1H)-yl)-2-hydroxypropyl)-2-methylquinoline-6-carboxamide], the IC50 was under 100 nM.
Take `O=C(NC[C@H](O)CN1CCc2ccccc2C1)c1ccc2ncccc2c1` [Compound 220]: the IC50 is under 100 nM.
Under `Cc1ccc2cc(C(=O)NC[C@H](O)CN3CCc4ccccc4C3)ccc2n1` [Compound 221, (S)—N-(3-(3,4-dihydroisoquinolin-2(1H)-yl)-2-hydroxypropyl)-2-methylquinoline-6-carboxamide] stands under 100 nM; under `NC(=O)CNCCOc1cccc(C(=O)NCC(O)CN2CCc3ccccc3C2)c1` (stereo not drawn) [Compound 222], under 100 nM; under `CN1CCC(Nc2cc(C(=O)NC[C@H](O)CN3CCc4ccccc4C3)ccn2)CC1` [Compound 223], under 100 nM.
Under `O=C(NC[C@H](O)CN1CCc2ccccc2C1)c1ccnc(NC2CCN(CC(F)(F)F)CC2)c1` [Compound 224] stands under 100 nM; under `CS(=O)(=O)N1CCC(Nc2cc(C(=O)NC[C@H](O)CN3CCc4ccccc4C3)ccn2)CC1` [Compound 225], under 100 nM.
For the compound `O=C(NC[C@H](O)CN1CCc2ccccc2C1)c1ccnc(NC2CCN(CC(F)(F)F)C2)c1` (stereo partly drawn) [Compound 226], the IC50 was under 100 nM.
As to `CS(=O)(=O)N1CCC(Nc2cc(C(=O)NC[C@H](O)CN3CCc4ccccc4C3)ccn2)C1` (stereo partly drawn) [Compound 227], the concentration for half-maximal inhibition (IC50) was under 100 nM.
For the compound `CC(=O)N1CCC(Nc2cc(C(=O)NC[C@H](O)CN3CCc4ccccc4C3)ccn2)C1` (stereo partly drawn) [Compound 228], the IC50 is under 100 nM.
Under `O=C(NC[C@H](O)CN1CCc2ccccc2C1)c1ccnc(OC2CCNCC2)c1` [Compound 229] stands under 100 nM.
Take `O=C(NC[C@H](O)CN1CCc2ccccc2C1)c1cc(NC2CCOC2)ncn1` (stereo partly drawn) [Compound 230]: the IC50 is under 100 nM.
Consider `Cc1c(NC2CCOCC2)ncnc1C(=O)NC[C@H](O)CN1CCc2ccccc2C1` [Compound 231], for which the IC50 is under 100 nM.
Consider `CN(C[C@H](O)CN1CCc2ccccc2C1)C(=O)c1cc(NC2CCOCC2)ncn1` [Compound 232], for which the IC50 was 101 to 1000 nM.
As to `CNCCN(C)c1cc(C(=O)NC[C@H](O)CN2CCc3ccccc3C2)ccn1` [Compound 233], the IC50 is under 100 nM.
As for `CN(C)CCOc1cc(C(=O)NC[C@H](O)CN2CCc3ccccc3C2)ccn1` [Compound 234], the concentration for half-maximal inhibition (IC50) was under 100 nM.
As to `O=C(NC[C@H](O)CN1CCc2ccccc2C1)c1ccnc(NCC2CCNCC2)c1` [Compound 235], the half-inhibitory concentration (IC50) is under 100 nM.
Regarding `O=C(NC[C@H](O)CN1CCc2ccccc2C1)c1ccnc(NCC2CCCNC2)c1` (stereo partly drawn) [Compound 236], the IC50 is under 100 nM.
Turning to `O=C(NC[C@H](O)CN1CCc2ccccc2C1)c1ccnc(NCC2CCCCN2)c1` (stereo partly drawn) [Compound 237], the half-inhibitory concentration (IC50) was under 100 nM.
`O=C(NC[C@H](O)CN1CCc2ccccc2C1)c1ccnc(NCC2CNCCO2)c1` (stereo partly drawn) [Compound 238]: the IC50 is under 100 nM.
`CN1CCC(Nc2cccc(C(=O)NC[C@H](O)CN3CCc4ccccc4C3)c2)CC1` [Compound 239]: the IC50 is under 100 nM.
As to `O=C(NC[C@H](O)CN1CCc2ccccc2C1)c1c[nH]c2ccccc12` [Compound 240], the concentration for half-maximal inhibition (IC50) lay in the range of 101 to 1000 nM.
Take `O=C(NC[C@H](O)CN1CCc2ccccc2C1)c1cccc2[nH]cnc12` [Compound 241]: the half-maximal inhibitory concentration (IC50) was under 100 nM.
For the compound `O=C(NC[C@H](O)CN1CCc2ccccc2C1)c1n[nH]c2ccccc12` [Compound 242], the IC50 is under 100 nM.
For the compound `O=C(NC[C@H](O)CN1CCc2ccccc2C1)c1ccc2c(c1)CCO2` [Compound 243], the 50% inhibitory concentration (IC50) is under 100 nM.
Turning to `O=C(NC[C@H](O)CN1CCc2ccccc2C1)c1ccc2c(c1)OCO2` [Compound 244], the IC50 is under 100 nM.
`O=C(NC[C@H](O)CN1CCc2ccccc2C1)c1cnc2ccccc2n1` [Compound 245]: the 50% inhibitory concentration (IC50) was under 100 nM.
`Cn1cc(C(=O)NC[C@H](O)CN2CCc3ccccc3C2)c2ccccc21` [Compound 246]: the half-inhibitory concentration (IC50) is under 100 nM.
For the compound `O=C(NC[C@H](O)CN1CCc2ccccc2C1)c1ccc2c(c1)CCCC2` [Compound 247], the IC50 is under 100 nM.
On to `O=C(NC[C@H](O)CN1CCc2ccccc2C1)c1csc2ccccc12` [Compound 248], for which the 50% inhibitory concentration (IC50) was under 100 nM.
Under `O=C(NC[C@H](O)CN1CCc2ccccc2C1)c1cccc2c1OCCO2` [Compound 249] stands under 100 nM; under `COc1ccc2oc(C(=O)NC[C@H](O)CN3CCc4ccccc4C3)cc2c1` [Compound 250], under 100 nM.
As to `COc1ccc2cc(C(=O)NC[C@H](O)CN3CCc4ccccc4C3)ccc2c1` [Compound 251], the IC50 was under 100 nM.
As for `CC(=O)N(C)CCN1CCN(Cc2cccc(C(=O)NCC(O)CN3CCc4ccccc4C3)c2)CC1` (stereo not drawn) [Compound 252], the IC50 is under 100 nM.
As to `CN1CCN(Cc2cccc(C(=O)NCC(O)CN3CCc4ccccc4C3)c2)CC1CO` (stereo not drawn) [Compound 253], the IC50 was under 100 nM.
Consider `CN1CCC(Nc2cc(C(=O)NC[C@H](O)CN3CCc4ccccc4C3)ccn2)C1` (stereo partly drawn) [Compound 255], for which the half-maximal inhibitory concentration (IC50) is under 100 nM.
On to `O=C(NC[C@H](O)CN1CCc2ccccc2C1)c1cc(OC2CCOCC2)ncn1` [Compound 256], for which the concentration for half-maximal inhibition (IC50) is under 100 nM.
As to `CS(=O)(=O)N1CCC(Nc2cc(C(=O)NC[C@H](O)CN3CCc4ccccc4C3)ncn2)C1` (stereo partly drawn) [Compound 257], the concentration for half-maximal inhibition (IC50) was under 100 nM.
With `O=C(NC[C@H](O)CN1CCc2ccccc2C1)c1cc(OC2CCNCC2)ncn1` [Compound 258], the IC50 was under 100 nM.
In the case of `O=C(NC[C@H](O)CN1CCc2ccccc2C1)c1cncc(NC2CCNC2)c1` (stereo partly drawn) [Compound 259], the concentration for half-maximal inhibition (IC50) is under 100 nM.
Take `O=C(NC[C@H](O)CN1CCc2ccccc2C1)c1cncc(OC2CCNCC2)c1` [Compound 260]: the IC50 is under 100 nM.
For `CN(c1cc(C(=O)NC[C@H](O)CN2CCc3ccccc3C2)ncn1)C1CCOCC1` [Compound 261], the 50% inhibitory concentration (IC50) is under 100 nM.
For the compound `CN(CCNc1cc(C(=O)NC[C@H](O)CN2CCc3ccccc3C2)ccn1)S(C)(=O)=O` [Compound 262], the half-inhibitory concentration (IC50) was under 100 nM.
Turning to `CN(CCN(C)S(C)(=O)=O)c1cc(C(=O)NC[C@H](O)CN2CCc3ccccc3C2)ccn1` [Compound 263], the IC50 is under 100 nM.
Under `CN1CCCC(CNc2cc(C(=O)NC[C@H](O)CN3CCc4ccccc4C3)ccn2)C1` (stereo partly drawn) [Compound 264] stands under 100 nM.
In the case of `CN1CCOC(CNc2cc(C(=O)NC[C@H](O)CN3CCc4ccccc4C3)ccn2)C1` (stereo partly drawn) [Compound 265], the IC50 is under 100 nM.
Turning to `CC(=O)N1CC[C@H](Nc2cccc(C(=O)NC[C@H](O)CN3CCc4ccccc4C3)c2)C1` [Compound 266], the IC50 was under 100 nM.
On to `CS(=O)(=O)N1CC[C@@H](Nc2cccc(C(=O)NC[C@H](O)CN3CCc4ccccc4C3)c2)C1` [Compound 267], for which the IC50 is under 100 nM.
Take `CS(=O)(=O)N1CC[C@H](Nc2cccc(C(=O)NC[C@H](O)CN3CCc4ccccc4C3)c2)C1` [Compound 268]: the 50% inhibitory concentration (IC50) is under 100 nM.
Turning to `O=C(NC[C@H](O)CN1CCc2ccccc2C1)c1cc2ccccc2[nH]1` [Compound 269], the 50% inhibitory concentration (IC50) was under 100 nM.
For the compound `O=C(NC[C@H](O)CN1CCc2ccccc2C1)c1ccc2[nH]ccc2c1` [Compound 270], the half-inhibitory concentration (IC50) fell in the range of 1000 to 10000 nM.
As for `O=C(NC[C@H](O)CN1CCc2ccccc2C1)c1cc2ccccc2o1` [Compound 271], the IC50 is under 100 nM.
Under `O=C(NC[C@H](O)CN1CCc2ccccc2C1)c1nccc2ccccc12` [Compound 272] stands under 100 nM; under `O=C(NC[C@H](O)CN1CCc2ccccc2C1)c1ccc2ncsc2c1` [Compound 273], under 100 nM; under `O=C(NC[C@H](O)CN1CCc2ccccc2C1)c1ccc2c(c1)OCCO2` [Compound 274], under 100 nM.
Take `Cc1cc2ncc(C(=O)NC[C@H](O)CN3CCc4ccccc4C3)c(C)n2n1` [Compound 275]: the IC50 was in the range of 101 to 1000 nM.
Under `O=C(NC[C@H](O)CN1CCc2ccccc2C1)c1cc2cccc(Cl)c2[nH]1` [Compound 276] stands under 100 nM.
Consider `CN(CCOc1cccc(C(=O)NCC(O)CN2CCc3ccccc3C2)c1)CC(N)=O` (stereo not drawn) [Compound 277], for which the 50% inhibitory concentration (IC50) is under 100 nM.
In the case of `CS(=O)(=O)N1CC(Nc2cc(C(=O)NC[C@H](O)CN3CCc4ccccc4C3)ccn2)C1` [Compound 278], the IC50 is under 100 nM.
On to `CC(=O)N1CC(Nc2cc(C(=O)NC[C@H](O)CN3CCc4ccccc4C3)ccn2)C1` [Compound 279], for which the IC50 was under 100 nM.
For the compound `O=C(NC[C@H](O)CN1CCc2ccccc2C1)c1cc(NC2CNC2)ncn1` [Compound 280], the concentration for half-maximal inhibition (IC50) was under 100 nM.
Consider `CN1CC(Nc2cc(C(=O)NC[C@H](O)CN3CCc4ccccc4C3)ncn2)C1` [Compound 281], for which the concentration for half-maximal inhibition (IC50) was under 100 nM.
`O=C(NC[C@H](O)CN1CCc2ccccc2C1)c1cc(NC2CN(CC(F)(F)F)C2)ncn1` [Compound 282]: the IC50 is under 100 nM.

The values above are taken from patent US9675614B2, “PRMT5 inhibitors and uses thereof” (Epizyme, Inc., priority 2012, dated 2017).
